Broadly, the Emax is the greatest response seen or fitted, relative to the assay's reference.

The results in this text go back to patent US20260176320A1, “MODULATORS OF G-PROTEIN COUPLED RECEPTORS” (priority 2018, published 2026).

Each structure is given as a SMILES string. Read-outs that look alike come from different tables or passages of the source.

The target of experiment [1] is T1, GLP-1R (Homo sapiens, UniProt P43220). The experiment is described as follows: HitHunter cAMP assay (GLP-1R). It is filed as cell-based. Conditions: cAMP; for Emax: read-out: (Emax) GLP-1R; for EC50: read-out: EC50 GLP-1R/nM. The gist of the method: (§1)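 cAMP, luminescence read: agonist 22-pt 2× dilution in DMSO, duplicate, 30 min RT on 10,000 cells/well in 1×HBSS/10 mM HEPES/625 μM IBMX/0.2% BSA; anti-cAMP reagent 1 h RT dark, then O/N RT dark before read.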

In the next experiment the target is T2, GIP-R (Homo sapiens, UniProt P48546).
T2 sequence (P48546 22-466): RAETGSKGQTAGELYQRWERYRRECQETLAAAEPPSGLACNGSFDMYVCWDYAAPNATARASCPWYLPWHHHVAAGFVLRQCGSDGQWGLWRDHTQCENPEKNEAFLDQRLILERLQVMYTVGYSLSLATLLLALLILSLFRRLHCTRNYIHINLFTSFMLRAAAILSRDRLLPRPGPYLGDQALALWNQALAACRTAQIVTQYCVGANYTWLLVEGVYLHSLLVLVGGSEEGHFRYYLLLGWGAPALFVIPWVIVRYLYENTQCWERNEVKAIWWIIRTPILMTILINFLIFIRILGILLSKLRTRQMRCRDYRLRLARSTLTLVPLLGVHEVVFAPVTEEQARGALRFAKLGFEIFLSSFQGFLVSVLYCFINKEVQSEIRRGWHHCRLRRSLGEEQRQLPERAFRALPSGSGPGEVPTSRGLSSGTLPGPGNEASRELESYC
The experiment is described as follows: HitHunter cAMP assay (GIP-R). Format: cell-based. Conditions: cAMP; for Emax: read-out: (Emax) GIP-R; for EC50: read-out: EC50 GIP-R/nM. Summed up:
as §1
For orientation: Changes in cAMP serve as a functional read-out for many G protein-coupled receptors.

A further experiment concerns mice. The experiment is described as follows: Glucose tolerance test (GTT). Conditions: 24 h GTT, s.c., dose range 2-5 nmol/kg, percent of vehicle. Format: in vivo, mouse. The gist of the method: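 Compounds diluted in PBS from 1 mM DMSO stocks and given subcutaneously 15 min (5-6 h fast), 4 h (16 h overnight fast), 16 h or 24 h before intraperitoneal glucose (2 g/kg). Tail blood glucose read at 10–120 min post-glucose, at least 6 mice per time-point. Glucose AUC over time determined.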

The target of experiment [2] is T1, GLP-1R. The experiment is described as follows: PathHunter β-arrestin assay. Format: cell-based. Conditions: PathHunter β-arrestin assay; read-out: β-arrestin activity EC50. Summed up: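 Luminescence read-out of β-arrestin recruitment (enzyme-fragment complementation detection, 3 h at room temperature in the dark) after 90 min agonist stimulation at 37 °C. Agonists tested as 22-point 2× serial dilutions in duplicate, in medium containing 0.2% BSA.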

T1 sequence (P43220 24-463): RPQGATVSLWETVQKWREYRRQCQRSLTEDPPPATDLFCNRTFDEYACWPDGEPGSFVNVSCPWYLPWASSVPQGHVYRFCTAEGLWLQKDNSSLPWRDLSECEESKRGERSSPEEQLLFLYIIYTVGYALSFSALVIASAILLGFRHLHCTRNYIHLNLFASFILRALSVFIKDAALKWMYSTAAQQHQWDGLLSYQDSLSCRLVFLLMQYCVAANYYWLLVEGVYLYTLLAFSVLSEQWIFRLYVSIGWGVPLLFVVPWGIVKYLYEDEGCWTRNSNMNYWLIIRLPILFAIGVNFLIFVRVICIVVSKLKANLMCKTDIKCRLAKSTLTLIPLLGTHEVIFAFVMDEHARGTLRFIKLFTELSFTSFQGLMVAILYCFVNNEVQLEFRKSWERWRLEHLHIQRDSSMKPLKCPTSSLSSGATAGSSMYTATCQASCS

On to `CCCCCCCCCCCCCCCC(=O)N[C@@H](CCC(=O)NCCCC[C@H](NC(=O)[C@H](CO)NC(=O)[C@@H]1CCCN1C(=O)[C@@H]1CCCN1C(=O)[C@@H]1CCCN1C(=O)[C@H](C)NC(=O)CNC(=O)[C@H](CO)NC(=O)[C@H](CO)NC(=O)[C@@H]1CCCN1C(=O)CNC(=O)CNC(=O)[C@H](C)NC(=O)[C@H](CC(C)C)NC(=O)[C@H](CC(C)C)NC(=O)[C@H](Cc1c[nH]c2ccccc12)NC(=O)[C@H](CC(N)=O)NC(=O)[C@@H](NC(=O)[C@H](Cc1ccccc1)NC(=O)[C@H](CCC(=O)O)NC(=O)C(C)(C)NC(=O)[C@H](C)NC(=O)[C@H](C)NC(=O)[C@H](CCC(N)=O)NC(=O)[C@H](CCCCN)NC(=O)[C@H](CC(=O)O)NC(=O)[C@H](CC(C)C)NC(=O)[C@H](Cc1ccc(O)cc1)NC(=O)[C@@H](NC(=O)[C@H](CO)NC(=O)[C@H](Cc1ccc(O)cc1)NC(=O)[C@H](CC(=O)O)NC(=O)[C@H](CO)NC(=O)[C@@H](NC(=O)[C@H](Cc1ccccc1)NC(=O)[C@@H](NC(=O)CNC(=O)[C@H](CCC(=O)O)NC(=O)CSCC(=O)NCCN1CCCCC1=O)[C@@H](C)O)[C@@H](C)O)[C@@H](C)CC)C(C)C)C(N)=O)C(=O)O` [Compound 65], for which the maximal response (Emax) at GLP-1R [1] (Table 3) is 96%; on GLP-1R [1] (Table 3A), 96%; on GIP-R (Table 3), 42%; at GIP-R (Table 3A), 42%. In addition, the EC50 was 0.1 to 1 nM on GLP-1R [1] (Table 3); 0.1 to 1 nM on GLP-1R [1] (Table 3A); 1 to 10 nM at GIP-R (Table 3); 1 to 10 nM on GIP-R (Table 3A); greater than 1000 nM on GLP-1R [2]. Moreover, in the experiment with mice, the AUC score is given as 2 (AUC score 2 = 26-50%).

Consider `CCCCCCCCCCCCCCCC(=O)N[C@@H](CCC(=O)NCCCC[C@H](NC(=O)[C@H](CO)NC(=O)[C@@H]1CCCN1C(=O)[C@@H]1CCCN1C(=O)[C@@H]1CCCN1C(=O)[C@H](C)NC(=O)CNC(=O)[C@H](CO)NC(=O)[C@H](CO)NC(=O)[C@@H]1CCCN1C(=O)CNC(=O)CNC(=O)[C@H](C)NC(=O)[C@H](CC(C)C)NC(=O)[C@H](CC(C)C)NC(=O)[C@H](Cc1c[nH]c2ccccc12)NC(=O)[C@H](CC(N)=O)NC(=O)[C@@H](NC(=O)[C@H](Cc1ccccc1)NC(=O)[C@H](CCC(=O)O)NC(=O)C(C)(C)NC(=O)[C@H](C)NC(=O)[C@H](C)NC(=O)[C@H](CCC(N)=O)NC(=O)[C@H](CCCCN)NC(=O)[C@H](CC(=O)O)NC(=O)[C@H](CC(C)C)NC(=O)[C@H](Cc1ccc(O)cc1)NC(=O)[C@@H](NC(=O)[C@H](CO)NC(=O)[C@H](Cc1ccc(O)cc1)NC(=O)[C@H](CC(=O)O)NC(=O)[C@H](CO)NC(=O)[C@@H](NC(=O)[C@H](Cc1ccccc1)NC(=O)[C@@H](NC(=O)CNC(=O)[C@H](CCC(=O)O)NC(=O)CCNC(=O)CN1CCCCCC1=O)[C@@H](C)O)[C@@H](C)O)[C@@H](C)CC)C(C)C)C(N)=O)C(=O)O` [Compound 266], for which the Emax at GLP-1R [1] (Table 3A) was 100%; at GIP-R (Table 3A), 70%. The EC50 at GLP-1R [1] (Table 3A) is less than 0.1 nM; at GIP-R (Table 3A), 1 to 10 nM; on GLP-1R [2] it was less than 10 nM. Moreover, the AUC score in the experiment with mice is recorded as 2 (AUC score 2 = 26-50%).

Consider `CCCCCCCCCCCCCCCC(=O)N[C@@H](CCC(=O)NCCCC[C@H](NC(=O)[C@H](CO)NC(=O)[C@@H]1CCCN1C(=O)[C@@H]1CCCN1C(=O)[C@@H]1CCCN1C(=O)[C@H](C)NC(=O)CNC(=O)[C@H](CO)NC(=O)[C@H](CO)NC(=O)[C@@H]1CCCN1C(=O)CNC(=O)CNC(=O)[C@H](C)NC(=O)[C@H](CC(C)C)NC(=O)[C@H](CC(C)C)NC(=O)[C@H](Cc1c[nH]c2ccccc12)NC(=O)[C@H](CC(N)=O)NC(=O)[C@@H](NC(=O)[C@H](Cc1ccccc1)NC(=O)[C@H](CCC(=O)O)NC(=O)C(C)(C)NC(=O)[C@H](C)NC(=O)[C@H](C)NC(=O)[C@H](CCC(N)=O)NC(=O)[C@H](CCCCN)NC(=O)[C@H](CC(=O)O)NC(=O)[C@H](CC(C)C)NC(=O)[C@H](Cc1ccc(O)cc1)NC(=O)[C@@H](NC(=O)[C@H](CO)NC(=O)[C@H](Cc1ccc(O)cc1)NC(=O)[C@H](CC(=O)O)NC(=O)[C@H](CO)NC(=O)[C@@H](NC(=O)[C@H](Cc1ccccc1)NC(=O)[C@@H](NC(=O)CNC(=O)[C@H](CCC(=O)O)NC(=O)CSCC(=O)NCCN1CCCC1=O)[C@@H](C)O)[C@@H](C)O)[C@@H](C)CC)C(C)C)C(N)=O)C(=O)O` [Compound 83], for which the Emax on GLP-1R [1] (Table 3) is 106%; on GLP-1R [1] (Table 3A), 106%; on GIP-R (Table 3), 73%; on GIP-R (Table 3A) it was 73%. In addition, the EC50 at GLP-1R [1] (Table 3) is 0.1 to 1 nM; on GLP-1R [1] (Table 3A) it was 0.1 to 1 nM; on GIP-R (Table 3), 1 to 10 nM; at GIP-R (Table 3A), 1 to 10 nM; on GLP-1R [2], greater than 1000 nM. For the same compound, the AUC score in the experiment on mice is 2 (AUC score 2 = 26-50%).

With `CCCCCCCCCCCCCCCC(=O)N[C@@H](CCC(=O)NCCCC[C@H](NC(=O)[C@H](CO)NC(=O)[C@@H]1CCCN1C(=O)[C@@H]1CCCN1C(=O)[C@@H]1CCCN1C(=O)[C@H](C)NC(=O)CNC(=O)[C@H](CO)NC(=O)[C@H](CO)NC(=O)[C@@H]1CCCN1C(=O)CNC(=O)CNC(=O)[C@H](C)NC(=O)[C@H](CC(C)C)NC(=O)[C@H](CC(C)C)NC(=O)[C@H](Cc1c[nH]c2ccccc12)NC(=O)[C@H](CC(N)=O)NC(=O)[C@@H](NC(=O)[C@H](Cc1ccccc1)NC(=O)[C@H](CCC(=O)O)NC(=O)C(C)(C)NC(=O)[C@H](C)NC(=O)[C@H](C)NC(=O)[C@H](CCC(N)=O)NC(=O)[C@H](CCCCN)NC(=O)[C@H](CC(=O)O)NC(=O)[C@H](CC(C)C)NC(=O)[C@H](Cc1ccc(O)cc1)NC(=O)[C@@H](NC(=O)[C@H](CO)NC(=O)[C@H](Cc1ccc(O)cc1)NC(=O)[C@H](CC(=O)O)NC(=O)[C@H](CO)NC(=O)[C@@H](NC(=O)[C@H](Cc1ccccc1)NC(=O)[C@@H](NC(=O)CNC(=O)[C@H](CCC(=O)O)NC(=O)CCNC(=O)CN1CCCCC1=O)[C@@H](C)O)[C@@H](C)O)[C@@H](C)CC)C(C)C)C(N)=O)C(=O)O` [Compound 5], the Emax was 95% at GLP-1R [1] (Table 3), 95% on GLP-1R [1] (Table 3A), 74% on GIP-R (Table 3) and 74% at GIP-R (Table 3A). The EC50 on GLP-1R [1] (Table 3) was less than 0.1 nM; on GLP-1R [1] (Table 3A), less than 0.1 nM; on GIP-R (Table 3), 1 to 10 nM; on GIP-R (Table 3A), 1 to 10 nM; on GLP-1R [2], 10 to 1000 nM. For the same compound, the AUC score with mice is listed as 2 (AUC score 2 = 26-50%).

Take `CCCCCCCCCCCCCCCC(=O)N[C@@H](CCC(=O)NCCCC[C@H](NC(=O)[C@H](CO)NC(=O)[C@@H]1CCCN1C(=O)[C@@H]1CCCN1C(=O)[C@@H]1CCCN1C(=O)[C@H](C)NC(=O)CNC(=O)[C@H](CO)NC(=O)[C@H](CO)NC(=O)[C@@H]1CCCN1C(=O)CNC(=O)CNC(=O)[C@H](C)NC(=O)[C@H](CC(C)C)NC(=O)[C@H](CC(C)C)NC(=O)[C@H](Cc1c[nH]c2ccccc12)NC(=O)[C@H](CC(N)=O)NC(=O)[C@@H](NC(=O)[C@H](Cc1ccccc1)NC(=O)[C@H](CCC(=O)O)NC(=O)C(C)(C)NC(=O)[C@H](C)NC(=O)[C@H](C)NC(=O)[C@H](CCC(N)=O)NC(=O)[C@H](CCCCN)NC(=O)[C@H](CC(=O)O)NC(=O)[C@H](CC(C)C)NC(=O)[C@H](Cc1ccc(O)cc1)NC(=O)[C@@H](NC(=O)[C@H](CO)NC(=O)[C@H](Cc1ccc(O)cc1)NC(=O)[C@H](CC(=O)O)NC(=O)[C@H](CO)NC(=O)[C@@H](NC(=O)[C@H](Cc1ccccc1)NC(=O)[C@@H](NC(=O)CNC(=O)[C@H](CCC(=O)O)NC(=O)C(C)(C)CC(=O)NCCN1CCCCC1=O)[C@@H](C)O)[C@@H](C)O)[C@@H](C)CC)C(C)C)C(N)=O)C(=O)O` [Compound 18]: the maximal effect (Emax) at GLP-1R [1] (Table 3) came to 101%; at GLP-1R [1] (Table 3A), 101%; on GIP-R (Table 3) it was 80%; at GIP-R (Table 3A) it was 80%. The EC50 at GLP-1R [1] (Table 3) was less than 0.1 nM; on GLP-1R [1] (Table 3A), less than 0.1 nM; at GIP-R (Table 3) it was 0.1 to 1 nM; on GIP-R (Table 3A), 0.1 to 1 nM; at GLP-1R [2] it was less than 10 nM. For the same compound, in the experiment with mice, the AUC score is on record as 2 (AUC score 2 = 26-50%).
